Data on 15 compounds can be found in US20030171377A1, “Antidiabetic agents” (priority 2001, published 2003).

Where a name gives a salt, the structure may show the parent alone.

For data set [1], the system named is Ob/Ob diabetic mouse model. As to the kind of experiment: In vivo glucose lowering, Ob/Ob diabetic mouse model. As to conditions: for In vivo % Rosiglitazone: glucose effect relative to rosiglitazone.
Data set [2] has as its system promoter/enhancer of the murine aP2 gene (PPAR-γ ligands). In words: 3T3-L1 Transient Reporter Assay (AD3T3-L1 Reporter), Test E. As to conditions: for AD3T3-L1 Reporter Max. % Rosi: maximal response relative to rosiglitazone. A general note: Reporter assays use an easily measured gene product as a stand-in for the process of interest.
The target of another data set is T1, PPAR gamma (Mus musculus, UniProt P37238).
T1 construct: expressed in transfected cells; host or cells: HepG2
T1 sequence (P37238 1-505): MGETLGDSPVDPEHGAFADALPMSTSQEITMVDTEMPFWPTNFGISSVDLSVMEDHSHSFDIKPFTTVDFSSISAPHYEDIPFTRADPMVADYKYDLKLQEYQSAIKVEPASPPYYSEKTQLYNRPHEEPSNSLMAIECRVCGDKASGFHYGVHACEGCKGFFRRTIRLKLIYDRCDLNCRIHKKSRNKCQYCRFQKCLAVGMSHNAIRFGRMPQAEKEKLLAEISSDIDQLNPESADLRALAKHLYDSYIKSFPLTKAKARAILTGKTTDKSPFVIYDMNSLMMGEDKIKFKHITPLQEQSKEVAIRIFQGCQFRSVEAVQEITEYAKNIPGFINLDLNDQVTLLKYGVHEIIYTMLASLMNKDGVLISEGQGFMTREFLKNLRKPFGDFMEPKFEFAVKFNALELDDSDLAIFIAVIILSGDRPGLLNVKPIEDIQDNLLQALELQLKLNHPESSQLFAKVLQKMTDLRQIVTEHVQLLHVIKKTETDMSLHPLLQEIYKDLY
As to the kind of experiment: HepG2-mGAMMA assay (PPAR gamma). The format is cell-based. As to conditions: HepG2 cells.

A further data set deals with T2, PPAR alpha (Homo sapiens, UniProt Q07869).
T2 construct: expressed in transfected cells; host or cells: HepG2
T2 sequence (Q07869 1-468): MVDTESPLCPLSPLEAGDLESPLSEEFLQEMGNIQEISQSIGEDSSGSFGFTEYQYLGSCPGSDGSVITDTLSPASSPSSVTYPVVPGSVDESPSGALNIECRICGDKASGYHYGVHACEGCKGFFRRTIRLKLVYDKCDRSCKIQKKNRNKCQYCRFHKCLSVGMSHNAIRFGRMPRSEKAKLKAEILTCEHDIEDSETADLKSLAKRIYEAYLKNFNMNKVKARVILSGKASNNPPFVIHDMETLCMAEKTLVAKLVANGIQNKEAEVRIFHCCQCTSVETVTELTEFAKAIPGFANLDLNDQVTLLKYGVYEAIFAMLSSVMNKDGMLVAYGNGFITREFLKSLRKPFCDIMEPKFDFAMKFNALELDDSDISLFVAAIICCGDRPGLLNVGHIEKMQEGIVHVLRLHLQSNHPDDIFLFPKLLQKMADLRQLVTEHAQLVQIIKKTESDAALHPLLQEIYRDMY
In words: HepG2-hALPHA assay (PPAR alpha). As to conditions: HepG2 cells. It counts as cell-based.

Regarding `Cc1oc(-c2ccccc2)nc1CCCc1ccc(CC(C(=O)O)n2cccn2)cc1` (racemic) [Example 0339165, 3-{4-[3-(5-Methyl-2-phenyl-oxazol-4-yl)-propyl]-phenyl}-2-pyrazol-1-yl-propionic acid], the “In vivo % Rosiglitazone” value in data set [1] was found to be 102.49%. In addition, in data set [2], the “AD3T3-L1 Reporter Max. % Rosi” value was 90 % Rosi.

Regarding `Cc1oc(-c2ccccc2)nc1CCCc1ccc(CC(C(=O)O)n2ccnn2)cc1` (centres unmarked) [Example 0338227], the “AD3T3-L1 Reporter Max. % Rosi” value in data set [2] is 59 % Rosi.

On to `CN(CCOc1ccc(CC2SC(=O)NC2=O)cc1)c1ccccn1` (centres unmarked) [Rosiglitazone], for which the “HepG2-mGamma Max. Res. % Rosi.” value on PPAR gamma was 100.0 % Rosi.

For `Cc1oc(-c2ccccc2)nc1CCOc1ccc(C[C@@H](C(=O)O)c2ccccc2)cc1` [Example 36, 3-{4-[2-(5-Methyl-2-phenyl-oxazol-4-yl)-ethoxy]-phenyl}-2-phenyl-propionic acid (R)], the melting point lay in the range of 124.1 to 125 °C.

With `Cc1oc(-c2ccccc2)nc1CCN(Cc1ccccc1)Cc1ccc(C[C@@H](C(=O)O)n2cccc2)cc1` (as salt: salt), the melting point fell in the range of 110 to 113 °C.

`Cc1oc(-c2ccccc2)nc1CCOc1ccc(CC(C)(C(=O)O)c2cccs2)cc1` (centres unmarked) [Example 73, 2-Methyl-3-{4-[2-(5-methyl-2-phenyl-oxazol-4-yl)-ethoxy]-phenyl}-2-thiophen-2-yl-propionic acid] yielded a melting point of 165 to 166 °C.

`CC(=O)N(CCc1nc(-c2ccccc2)oc1C)Cc1ccc(C[C@@H](C(=O)O)n2cccc2)cc1` [Example 111, (S)-3-[4-({Acetyl-[2-(5-methyl-2-phenyl-oxazol-4-yl)-ethyl]-amino}-methyl)-phenyl]-2-pyrrol-1-yl-propionic acid]: the melting point is 82 to 87 °C.

For `Cc1oc(-c2ccccc2)nc1CCOc1cccc2c1ccn2C(C)C(=O)O` (centres unmarked) [Example 65, 2-(4-[2-(5-Methyl-2-phenyl-oxazol-4-yl)-ethoxy]-indol-1-yl)-propionic acid], the melting point lay in the range of 157 to 159 °C.

Consider `Cc1oc(-c2ccccc2)nc1CCOc1ccc(CC(C)(C)C(=O)O)cc1` [Example 40, 2,2-Dimethyl-3-{4-[2-(5-methyl-2-phenyl-oxazol-4-yl)-ethoxy]-phenyl}-propionic acid], for which the melting point is 133 to 134 °C.

`O=C(O)[C@H](Cc1ccc(OCCn2c(-c3ccccc3)nc3ccccc32)cc1)n1cccc1` (stereo in doubt) [Example 23, 3-{4-[2-(2-Phenyl-benzimidazol-1-yl)-ethoxy]-phenyl}-2-pyrrol-1-yl-propionic acid] yielded a melting point of 210 to 212 °C.

`Cc1oc(-c2ccccc2)nc1CCOc1cc(CC(C(=O)O)n2cccc2)on1` (centres unmarked) [Example 77, 3-{3-[2-(5-Methyl-2-phenyl-oxazol-4-yl)-ethoxy]-isoxazol-5-yl}-2-pyrrol-1-yl-propionic acid] gave a melting point of 143 to 144 °C.

Take `Cc1oc(-c2ccccc2)nc1CCCc1ccc(CC(C(=O)O)n2cncn2)cc1` (centres unmarked) [Example 0336683]: in data set [1] (20 mg/kg), the “In vivo Δ Glucose@ 20 mg/kg” value is −53. In addition, in data set [1], the “In vivo % Rosiglitazone” value is listed as 24.38%. Also, in data set [2] (Mus musculus, 3T3-L1, read-out: AD3T3-L1 Reporter EC50(nM)), the EC50 was found to be 9700 nM. In data set [2], the “AD3T3-L1 Reporter Max. % Rosi” value came to 62.8 % Rosi.

The compound `Cc1oc(-c2ccccc2)nc1CCOc1ccc(C[C@@H](C(=O)O)n2cccc2C(=O)C(F)(F)F)cc1` [Example 12, (S)-3-{4-[2-(5-Methyl-2-phenyl-oxazol-4-yl)-ethoxy]-phenyl}-2-[2-(2,2,2-trifluoro-acetyl)-pyrrol-1-yl]-propionic acid] had a melting point of 187 to 188 °C.

Take `CCCCCCCN(CCc1ccc(SC(C)(C)C(=O)O)cc1)C(=O)Nc1ccc(F)cc1F` [GW9578]: on PPAR alpha, the “HepG2-hAlpha Max. Res. % GW9578” value stood at 100.0 % GW9578 and the “HepG2-hAlpha concentration of Max. Res. (uM, in brackets)” value worked out at 1 µM.

On to `Cc1oc(-c2ccccc2)nc1CCOc1ccc(CC(F)(C(=O)NS(C)(=O)=O)c2ccccc2)cc1` (centres unmarked) [Example 76, N-(2-Fluoro-3-{4-[2-(5-methyl-2-phenyl-oxazol-4-yl)-ethoxy]-phenyl}-2-phenyl-propionyl)-methanesulfonamide], for which the melting point lay in the range of 118 to 120 °C.

In general, melting point refers to the temperature, or range, at which the solid turns liquid. In general, EC50 refers to the concentration that produces a half-maximal response.
